{"source": "patent US9073851B2", "about": "“Compositions and methods for treating cancer” (Board of Regents, The University of Texas System, priority 2011, dated 2015)", "key": {"MCF-7 cells [1]": {"test_system": "MCF-7 cells", "assay": "Apoptosis / cell death in MCF-7 cells (Annexin V, FACS)", "assay_type": "cell-based, human", "method": "Apoptosis was assessed by an Annexin V assay, monitoring PARP and caspase 9 cleavage by Western blot. To provide a comparative assay of apoptosis by Annexin V labeling, tumor cells (1×10^6) treated with CaMK-III siRNA or control siRNA for 24 to 96 hours were harvested and washed with PBS. Cells were resuspended in binding buffer and stained with Annexin V and propidium iodide (PI) according to the manufacturer's protocol (BD Pharmingen Annexin V kit, San Diego, Calif.). Positive cells were detected and quantified by FACS analysis."}, "eEF-2K": {"test_system": "eEF-2K", "assay": "Western blot of MCF-7 cells treated with 5-NT", "assay_type": "cell-based, human", "method": "(§1) FIG. 5. 5-NT down-regulates critical pro-tumorigenic processes in ER(+) MCF-7 triple negative breast cancer cells. […] 5-NT also induces PARP cleavage and LC3-II. Methods: MCF7 cells were cultured at 37° C. in DMEM supplemented with 5% FBS in a humid incubator with 5% CO2. Following incubation with or without 5-NT cells were lysed according to standard protocols for western blotting. Blots were quantified as in FIG. 3.\nas §1, with “FIG. 9.” for “FIG. 5.”, “MCF-7” for “MCF-7 triple negative”, “and LC3-II formation.” for “and LC3-II.”, “without 5-NT,” for “without 5-NT”, “FIG. 7.” for “FIG. 3.”"}, "MCF-7 cells [2]": {"test_system": "MCF-7 cells", "assay": "Clonogenic survival assay", "assay_type": "cell-based, human", "method": "To study the effect of CaMK-III growth of ER(−) and ER(+) breast cancer cells we performed a clonogenic assay, which is based on the ability of a single cell to grow into a colony (Franken N A, et al. Nat Protoc 2006: 1:2315-9), using MDA-MB-231 and MCF-7 cells, respectively. Cells were transfected with either CaMK-III or control siRNA (50 nM) […] over a period of two weeks.\nThis assay is an in vitro cell survival assay based on the ability of a single cell to grow into a colony. Briefly, cells (500 cells/well) were transfected with control siRNA or CaMK-III siRNA every week and grown for 2 to 3 weeks. Cells were stained with crystal violet and colonies were counted. Each experiment was repeated twice.\nTo study the effect of 5-HT1B on the survival and colony formation of breast cancer cells a clonogenic survival assay was performed using various concentrations of […] over a period of two weeks. This assay is based on the ability of a single cell to grow into a colony [Franken N A, et al. Nat Protoc 2006: 1:2315-2319]. […] Cell death and detachment as well as reduced cell number was observed.\nThis assay is an in vitro cell survival assay based on the ability of a single cell to grow into a colony. […] Cells were stained with crystal violet and colonies cells were counted. […]"}, "[3]": {"test_system": "5-HT1B or 5-HT1D receptor", "assay": "Effect on cell proliferation after siRNA knockdown of 5-HT1B or 5-HT1D receptor", "assay_type": "cell-based"}}}
{"smiles": "CCCCCCCCCOc1ccc2[nH]cc(CCN)c2c1", "note": "[5-NT, 5-nonylytryptamine]", "values": [{"measurement": "induction of apoptosis", "setting": "MCF-7 cells [1]", "value": "induced robust apoptosis"}, {"measurement": "cell death in combination with doxorubicin", "setting": "MCF-7 cells [1]; with a low dose of doxorubicin", "value": "synergistic cell death"}, {"measurement": "time to down-regulation of ERK/cyclin-D, Akt/mTor, IGF1-R, Src/Fak and eEF-2K", "setting": "eEF-2K", "value": "≤ 4", "unit": "h"}, {"measurement": "colony formation", "setting": "MCF-7 cells [2]", "value": "inhibits colony formation"}, {"measurement": "effect of compound after knockdown of 5-HT1B or 5-HT1D receptor", "setting": "[3]", "value": "blunts the effect"}]}
